Source: patent US20250179017A1 (GUANGDONG NEWOPP BIOPHARMACEUTICALS CO., LTD., priority 2022, published 2025)

Biological target: T1, human EP2 (PTGER2) (Homo sapiens, UniProt P43116)
T1 construct: Cayman Chemical (Human EP2 Reporter Assay Kit)
Assay: EP2 antagonist assay (HEK-293 CNG membrane potential cAMP assay / 293T SEAP reporter assay, PGE2-stimulated)
Format: cell-based
Settings: EP2 antagonist activity; concentration for 50% inhibition of signal compared to DMSO
From the text: 1. The HEK-293 CNG (Cyclic Nucleotide Gated) cell line expressing a modified CNG channel that leads to cell membrane depolarization in response to elevated intracellular cAMP levels, which can be measured using a fluorescent membrane potential dye, was engineered to express human EP2 (PTGER2) or EP4 (EP4R). The resulting cell line ACTOne™ PTGER2 or ACTOne™ EP4R as well as the fluorescent membrane potential dye were purchased from eEnzyme (Gaithersburg, MD, US) and used in this assay. Briefly, cells were plated at 1.2×10^4 cells/well in 20 μL DMEM supplemented with 2% Fetal Bovine Serum (FBS, VWR International), 1x Penicillin/Streptomycin (GenClone), 0.2 μg/mL puromycin (InvivoGen) and 50 μg/mL G418 (InvivoGen) on a 384 well plate (Greiner). The next day, cells were dye-loaded with 20 μL/well of 1x Dye-loading solution (eENZYME) following the manufacturer's instruction. After 2 hours of incubation at room temperature (RT) in the dark, a pre-read was made to obtain the background signals using CLARIOstar plate reader (BMG LABTECH, Germany) with the following filter settings: excitation=530/20 nm, emission=590/20 nm. Next, a serial dilution of compound (plus a DMSO control) were added to the plate (5 μL/well) and the reaction was incubated at RT for 15 min before adding 5 μL of PGE2 to every well for a final concentration of 5 nM. All wells were duplicated. The plate was then further incubated at RT for 30 min prior to a final read with the same machine settings. Background-subtracted signals were used to calculate IC50 values.
2. Human EP2 and EP4 Reporter Assay Kits were purchased from Cayman Chemical (Ann Arbor, MI, USA). The assay was performed following the provided User Manual. Briefly, a reverse transfection was performed by seeding 6.0×10^4 of 293T cells (ATCC) to each well of the provided Strip Plate coated with a proprietary transfection complex containing DNA constructs for expressing human EP2 or EP4 and a cAMP response element regulated secreted alkaline phosphatase (SEAP) reporter, in 200 μL DMEM supplemented with 2% FBS and incubated for 20-24 hours at 37° C. with 5% CO2. After the incubation, the culture medium was carefully removed, and the cells were replenished with 150 μL pre-warmed serum-free medium. PGE2 and test compounds were prepared together at 4x the desired final concentration, and 50 μL was added to each assigned well with the final concentration of 13 nM and 2 nM PGE2 for EP2 and EP4 assay, respectively. After 6-8 hours of incubation, 10 μL media from each well was transferred to corresponding well of a new plate, which was then sealed and incubated at 65° C. for 30 min. The plate was then cooled down to RT and 50 μL SEAP substrate was added to each well. Luminescence signal was measured using a CLARIOstar plate reader.
The IC50 value was determined as the concentration for 50% inhibition of signal compared to DMSO (A: IC50 […]; B: IC50 between 100 nM and 1,000 nM; C: IC50≥1,000 nM).

T1 sequence (P43116 whole entry): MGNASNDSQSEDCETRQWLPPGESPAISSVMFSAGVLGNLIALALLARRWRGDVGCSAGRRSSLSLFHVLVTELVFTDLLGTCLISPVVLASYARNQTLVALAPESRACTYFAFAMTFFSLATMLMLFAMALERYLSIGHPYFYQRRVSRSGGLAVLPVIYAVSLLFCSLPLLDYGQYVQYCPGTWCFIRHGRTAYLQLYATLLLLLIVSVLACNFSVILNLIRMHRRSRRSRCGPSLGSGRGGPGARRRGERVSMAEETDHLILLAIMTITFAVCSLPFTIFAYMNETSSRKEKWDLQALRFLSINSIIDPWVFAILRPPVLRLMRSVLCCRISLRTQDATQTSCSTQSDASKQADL

Row | IC50 [nM] | SMILES
1 | < 100 | C[C@H](NC(=O)c1cc(-c2ccc(F)c(F)c2)cc2ccn(Cc3ccc(-c4ccc(F)cc4)cc3)c12)c1ccc(C(=O)O)cc1 [Example 215, (S)-4-(1-(5-(3,4-difluorophenyl)-1-((4′-fluoro-[1,1′-biphenyl]-4-yl)methyl)-1H-indole-7-carboxamido)ethyl)benzoic acid]
2 | ≥ 1000 | C[C@@H](NC(=O)c1cc(-c2ccc(F)c(F)c2)cc2ccn(Cc3ccc(C(F)(F)F)cc3)c12)c1ccc(C(=O)O)cc1 [Example 13, (R)-4-(1-(5-(3,4-difluorophenyl)-1-(4-(trifluoromethyl)benzyl)-1H-indole-7-carboxamido)ethyl)benzoic acid]
3 | < 100 | C[C@H](NC(=O)c1cc(-c2ccc(F)c(F)c2)cc2ccn(Cc3ccc(-c4ccccc4)cc3)c12)c1ccc(C(=O)O)cc1 [Example 207, (S)-4-(1-(1-([1,1′-biphenyl]-4-ylmethyl)-5-(3,4-difluorophenyl)-1H-indole-7-carboxamido)ethyl)benzoic acid]
4 | ≥ 1000 | O=C(O)c1ccc(CNC(=O)c2ccc(-c3cc(F)cc(C(F)(F)F)c3)c3ccn(Cc4ccc(C(F)(F)F)cc4)c23)cc1 [Example 28, 4-((4-(3-fluoro-5-(trifluoromethyl)phenyl)-1-(4-(trifluoromethyl)benzyl)-1H-indole-7-carboxamido)methyl)benzoic acid]
5 | < 100 | C[C@H](NC(=O)c1cc(-c2ccc(F)c(F)c2)cc2cnn(Cc3ccc(C(F)(F)F)cc3)c12)c1ccc(C(=O)O)cc1 [Example 195, (S)-4-(1-(5-(3,4-difluorophenyl)-1-(4-(trifluoromethyl)benzyl)-1H-indazole-7-carboxamido)ethyl)benzoic acid]
6 | < 100 | C[C@H](NC(=O)c1cc(-c2ccc(F)cc2)cc2ccn(Cc3ccc4ccccc4c3)c12)c1ccc(C(=O)O)cc1 [Example 163, (S)-4-(1-(5-(4-fluorophenyl)-1-(naphthalen-2-ylmethyl)-1H-indole-7-carboxamido)ethyl)benzoic acid]
7 | < 100 | O=C(O)c1ccc(CNC(=O)c2ccc(Nc3ccc(F)cc3)c3ccn(Cc4ccc5ccccc5c4)c23)cc1 [Example 183, ((4-((4-fluorophenyl)amino)-1-(naphthalen-2-ylmethyl)-1H-indole-7-carboxamido)methyl)benzoic acid]
8 | < 100 | C[C@H](NC(=O)c1cc(-c2cc(F)cc(F)c2)cc2cnn(Cc3ccc(-c4ccc(F)cc4)cc3)c12)c1ccc(C(=O)O)cc1 [Example 204, (S)-4-(1-(5-(3,5-difluorophenyl)-1-((4′-fluoro-[1,1′-biphenyl]-4-yl)methyl)-1H-indazole-7-carboxamido)ethyl)benzoic acid]
9 | < 100 | C[C@H](NC(=O)c1cc(-c2ccc(F)cc2)cc2cnn(Cc3ccc(-c4ccccc4)cc3)c12)c1ccc(C(=O)O)cc1 [Example 199, (S)-4-(1-(1-([1,1′-biphenyl]-4-ylmethyl)-5-(4-fluorophenyl)-1H-indazole-7-carboxamido)ethyl)benzoic acid]
10 | < 100 | C[C@H](NC(=O)c1cc(-c2cccc(C#N)c2)cc2ccn(Cc3cccc(C(F)(F)F)c3)c12)c1ccc(C(=O)O)cc1 [Example 127, (S)-4-(1-(5-(3-cyanophenyl)-1-(3-(trifluoromethyl)benzyl)-1H-indole-7-carboxamido)ethyl)benzoic acid]
11 | 100 to 1000 | N#Cc1cc(-c2cc(C(=O)NCc3ccc(C(=O)O)cc3)c3c(ccn3Cc3ccc(C(F)(F)F)cc3)c2)ccc1F [Example 79, 4-((5-(3-cyano-4-fluorophenyl)-1-(4-(trifluoromethyl)benzyl)-1H-indole-7-carboxamido)methyl)benzoic]
12 | < 100 | C[C@H](NC(=O)c1cc(-c2ccc(F)cc2)cc2cnn(Cc3ccc(C(F)(F)F)cc3)c12)c1ccc(C(=O)O)cc1 [Example 194, (S)-4-(1-(5-(4-fluorophenyl)-1-(4-(trifluoromethyl)benzyl)-1H-indazole-7-carboxamido)ethyl)benzoic acid]
13 | < 100 | O=C(O)c1ccc(CNC(=O)c2cc(-c3ccc(F)c(F)c3)cc3cnn(Cc4ccc5ccccc5c4)c23)cc1 [Example 218, 4-((5-(3,4-difluorophenyl)-1-(naphthalen-2-ylmethyl)-1H-indazole-7-carboxamido)methyl)benzoic acid]
14 | < 100 | COc1cccc(Cn2ccc3c(Nc4ccccc4)ccc(C(=O)NCc4ccc(C(=O)O)cc4)c32)c1 [Example 155, 4-((1-(3-methoxybenzyl)-4-(phenylamino)-1H-indole-7-carboxamido)methyl)benzoic acid]
15 | < 100 | O=C(O)c1ccc(CNC(=O)c2cc(-c3ccc(F)c(F)c3)cc3cnn(Cc4ccc(-c5ccc(F)cc5)cc4)c23)cc1 [Example 187, 4-((5-(3,4-difluorophenyl)-1-((4′-fluoro-[1,1′-biphenyl]-4-yl)methyl)-1H-indazole-7-carboxamido)methyl)benzoic acid]
16 | < 100 | O=C(O)c1ccc(CNC(=O)c2cc(-c3ccc(F)cc3)cc3ccn(Cc4ccc(-c5ccccc5)cc4)c23)cc1 [Example 148, 4-((1-([1,1′-biphenyl]-4-ylmethyl)-5-(4-fluorophenyl)-1H-indole-7-carboxamido)methyl)benzoic acid]
17 | < 100 | O=C(O)c1ccc(CNC(=O)c2cc(-c3cc(F)cc(F)c3)cc3ncn(Cc4ccc(C(F)(F)F)cc4)c23)cc1 [Example 173, 4-((5-(3,5-difluorophenyl)-1-(4-(trifluoromethyl)benzyl)-1H-benzo[d]imidazole-7-carboxamido)methyl)benzoic acid]
18 | ≥ 1000 | O=C(O)c1ccc(C2(NC(=O)c3ccc(-c4cccc(C(F)(F)F)c4)c4ccn(Cc5ccc(C(F)(F)F)cc5)c34)CC2)cc1 [Example 40, 4-(1-(1-(4-(trifluoromethyl)benzyl)-4-(3-(trifluoromethyl)phenyl)-1H-indole-7-carboxamido)cyclopropyl)benzoic acid]
19 | ≥ 1000 | C[C@H](NC(=O)c1cc(-c2cc(F)cc(F)c2)cc2nnn(Cc3ccc(C(F)(F)F)cc3)c12)c1ccc(C(=O)O)cc1 [Example 181, (S)-4-(1-(5-(3,5-difluorophenyl)-1-(4-(trifluoromethyl)benzyl)-1H-benzo[d][1,2,3]triazole-7-carboxamido)ethyl)benzoic acid]
20 | 100 to 1000 | O=C(O)c1ccc(C2(NC(=O)c3cc(-c4cc(F)cc(F)c4)cc4ccn(Cc5cccc(C(F)(F)F)c5)c34)CC2)cc1 [Example 132, 4-(1-(5-(3,5-difluorophenyl)-1-(3-(trifluoromethyl)benzyl)-1H-indole-7-carboxamido)cyclopropyl)benzoic acid]
21 | < 100 | C[C@H](NC(=O)c1cc(-c2ccc(F)c(F)c2)cc2cnn(Cc3cccc(C(F)(F)F)c3)c12)c1ccc(C(=O)O)cc1 [Example 220, (S)-4-(1-(5-(3,4-difluorophenyl)-1-(3-(trifluoromethyl)benzyl)-1H-indazole-7-carboxamido)ethyl)benzoic acid]
22 | < 100 | COc1cccc(Cn2ccc3cc(-c4ccccc4)cc(C(=O)NCc4ccc(C(=O)O)cc4)c32)c1 [Example 146, 4-((1-(3-methoxybenzyl)-5-phenyl-1H-indole-7-carboxamido)methyl)benzoic acid]
23 | ≥ 1000 | CN(c1ccccc1)c1ccc(C(=O)NC2(c3ccc(C(=O)O)cc3)CC2)c2c1ccn2Cc1ccc(C(F)(F)F)cc1 [Example 46, 4-(1-(4-(methyl(phenyl)amino)-1-(4-(trifluoromethyl)benzyl)-1H-indole-7-carboxamido)cyclopropyl)benzoic acid]
24 | < 100 | O=C(O)c1ccc(CNC(=O)c2ccc(Nc3ccccc3)c3ccn(Cc4ccc5ccccc5n4)c23)cc1 [Example 153, 4-((4-(phenylamino)-1-(quinolin-2-ylmethyl)-1H-indole-7-carboxamido)methyl)benzoic acid]
25 | 100 to 1000 | O=C(O)c1ccc(C2(NC(=O)c3cc(-c4ccccc4)cc4ccn(Cc5cccc(C(F)(F)F)c5)c34)CC2)cc1 [Example 131, 4-(1-(5-phenyl-1-(3-(trifluoromethyl)benzyl)-1H-indole-7-carboxamido)cyclopropyl)benzoic acid]
